The numbers were not newly measured in US7468434B2, “Diazene-bridge crown ether lithium compounds and methods for their use” (The University of Hong Kong, priority 2004, dated 2008), which cites them from elsewhere.

This series deals with retinal ganglion cells. The following applies: ocular hypertensive model.

Take lithium chloride: the “prevention of degeneration of RGC” value is on record as “could prevent degeneration of RGC”.
